# Earlier results as cited in patent US5955321A, “Production and use of compositions comprising high concentrations of vitamin B12 activity” (Gist-Brocades, priority 1996, dated 1999).
# Settings: for stability to light: in isolated form
Molecule,stability in aqueous solution,stability to light
C/C1=C2/[N-][C@H]([C@H](CC(N)=O)[C@@]2(C)CCC(=O)NC[C@@H](C)OP(=O)([O-])O[C@H]2[C@@H](O)[C@@H](n3cnc4cc(C)c(C)cc43)O[C@@H]2CO)[C@]2(C)N=C(/C(C)=C3N=C(/C=C4N=C1[C@@H](CCC(N)=O)C\4(C)C)[C@@H](CCC(N)=O)[C@]\3(C)CC(N)=O)[C@@H](CCC(N)=O)[C@]2(C)CC(N)=O.[CH3-].[Co+3] [methylcobalamin],easily transformed to hydroxocobalamin,unstable to light
5'desoxyadenosylcobalamin,easily transformed to hydroxocobalamin,unstable to light
